Experimental data from patent US9707155B2, “Delamination resistant pharmaceutical glass containers containing active pharmaceutical ingredients” (Corning Incorporated, priority 2013, dated 2017).

Tests used:
[1] = Stability after storage conditions; format: physicochemical; conditions: under the chosen conditions
blood glucose = test: Action profile in dogs (blood glucose as percentage of initial level); format: in vivo; conditions: blood glucose at 1 h, 2 h, 3 h, 5 h, 7h
Procedure: An action profile of Lyxumia and/or Lyxumia and Lantus (in combination) after subjection to the storage conditions described in Example 6 is carried out by comparing insulin glargine in dogs with human insulin-Arg^B31-Arg^B32-OH and basal H insulin as an NPH (neutral protamine Hagedorn) composition containing about 10 μg of Zn^2+.
Blood glucose is measured as a percentage of the initial level at the following time points: 1 h, 2 h, 3 h, 5 h, 7h.

[2] = in vivo; cited from earlier work
[3] = test system: patients with acute coronary syndromes; conditions: compared to unfractionated heparin and eptifibatide; cited from earlier work
tumor cell lines = conditions: cited from earlier work
[4] = cited from earlier work
tumor xenografts (WM9) = test: Melanoma xenografts (WM9) in nude mice; format: in vivo; conditions: 5 days treatment, versus untreated mice
Procedure: Tumor cells (5×10^6) are injected into the bilateral flanks of female […] nude mice (6-8 weeks of age). The tumors are measured with calipers using the formula: V=[…], where V is the volume, L is the largest diameter, and I is the perpendicular diameter of the tumor. When the volume of the tumor nodules reaches 100-150 mm^3, mice are randomly assigned to control or treatment groups (6-9 mice/group).
Therapeutic treatment with a combination of SAR2405550/BSI-201 and the alkylating agent TMZ was initiated when tumor xenografts (WM9) in nude mice reach 100 mm^3 in volume and treatment was continued for 5 days. In specific instances, the tumor volume is measured for assessment of therapeutic effect.

[5] = test system: IL-6-dependent myeloma cell line, KPMM2; test: IL-6 signaling mediated by mIL-6R, KPMM2 growth; format: cell-based
Procedure: IL-6-dependent myeloma cell line, KPMM2 (1×10^5 cells/mL) are cultured with IL-6 (0-100 ng/mL) and sarilumab (0-100 μg/mL) in a CO2 incubator for 4 days in a 96-well plate. After incubation, the amount of [^3H]-thymidine uptake into cells is determined with a scintillation counter.

human IL-6R = target: T1, human IL-6R (Homo sapiens, UniProt P08887); test: Binding to COS-7 cells transfected with human IL-6R (fluorescent intensity); format: cell-based
T1 construct: expressed in transfected cells; host or cells: COS-7 cells
T1 sequence (P08887 20-468): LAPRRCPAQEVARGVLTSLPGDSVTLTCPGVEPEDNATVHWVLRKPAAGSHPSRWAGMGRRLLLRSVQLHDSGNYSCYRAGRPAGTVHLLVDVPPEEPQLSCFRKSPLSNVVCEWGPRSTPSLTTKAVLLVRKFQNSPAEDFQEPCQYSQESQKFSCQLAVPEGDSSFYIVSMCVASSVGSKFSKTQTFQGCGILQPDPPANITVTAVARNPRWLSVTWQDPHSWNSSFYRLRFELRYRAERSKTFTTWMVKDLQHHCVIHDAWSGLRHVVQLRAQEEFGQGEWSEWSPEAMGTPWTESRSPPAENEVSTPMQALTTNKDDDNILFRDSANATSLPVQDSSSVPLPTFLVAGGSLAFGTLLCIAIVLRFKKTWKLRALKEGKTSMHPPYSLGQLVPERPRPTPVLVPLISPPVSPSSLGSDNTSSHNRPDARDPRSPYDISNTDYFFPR
Procedure: COS-7 cells (1×10^6) are inoculated into 10 mL of the medium on a 10 cm dish. Next day, the old medium is replaced with 20 mL of new medium per dish. After 3.42 mL of Opti-MEM (Invitrogen, Carlsbad, Calif., USA) is placed in a polystyrene tube, 180 μL of Trans-IT LTI reagent (Takara Bio, Shiga, Japan) is added and mixed well. The mixture (3.6 mL) is left at room temperature for 15 min. After 60 μg of human IL-6R expression vector hIL-6R/pcDNA3.1 (+) or control (empty) vector pcDNA3.1 (+) (Invitrogen) is added to 5.4 mL of Opti-MEM and mixed well with the above mixture, the resulting solution (9 mL) is allowed to stand at room temperature for 15 min, divided in 3 mL aliquots on three dishes, and incubated at 37 8 C under 5% CO2 for 3 days.

[6] = test system: patients with active rheumatoid arthritis; conditions: week 12, subcutaneous, relative to placebo, patients receiving methotrexate; cited from earlier work
BAF-h130 cells = test: IL-6 signaling mediated by sIL-6R, BAF-h130 proliferation ([3H]-thymidine uptake); format: cell-based, murine; conditions: IL-6 100 ng/mL, sIL-6R 500 ng/mL, 4 days
Procedure: BAF-h130 cell is a human gp130-transfected murine pro-B cell, BAF-B03. BAF-h130 cells (1×10^4) are cultured with IL-6 (100 ng/mL) (Genzyme-techne, Minneapolis, Minn., USA), sIL-6R (500 ng/mL) or sarilumab (0.01-100 Ag/mL) at 37° C. under 5% CO2 for 4 days in 96-well flat-bottomed plates. The culture is performed in quadruplicate. [^3H]-thymidine (10 μL/well, 3.7 MBq/mL) (Amercham Pharmacia Biotech, Piscataway, N.J., USA) is added to each well 5 h before the completion of culture. After incubation, the amount of [^3H]-thymidine uptake into cells is determined with a scintillation counter (1450 MicroBeta) (Wallace Oy, Turku, Finland).
BaF-h130 cells could grow by the co-addition of IL-6 (100 ng/ml) and sIL-6R (500 ng/mL), but not by IL-6 or sIL-6R alone. […] Sarilumab suppresses the IL-6/sIL-6R complex-induced proliferation of human gp130-transfected cell, BAF-h130.

21^A-Gly-30^Ba-L-Arg-30^Bb-L-Arg-human insulin [Gly^A21-Human Insulin-Arg^B31-Arg^B32-OH]
stability [1]: stable for a long period of time | basal action profile (blood glucose): same advantageous basal profile as human insulin-Arg^B31-Arg^B32-OH

COC(=O)[C@H](Cc1cccc(C(=N)N)c1)[C@@H](C)NC(=O)c1ccc(-c2cc[n+]([O-])cc2)cc1 (mixture of isomers) [Otamixaban, Methyl(2R,3R)-2-{3-[amino(imino)methyl]benzyl}-3-{[4-(1-oxidopyridin-4-yl)benzoyl]amino}butanoate]
half-life [2]: ~30 min | combined end point of death or myocardial infarction [3]: significant reduction

NC(=O)c1ccc(I)c([N+](=O)[O-])c1 [Iniparib, 4-iodo-3-nitrobenzamide]
cell cycle arrest (tumor cell lines): inducing cell cycle arrest in the G2/M phase | potentiation of DNA damaging modalities (tumor cell lines): potentiating the cell cycle effects of DNA damaging modalities | γ-H2AX induction (tumor cell lines): inducing γ-H2AX | solubility [4]: soluble

Cn1nnc2c(C(N)=O)ncn2c1=O [TMZ]
tumor growth (tumor xenografts (WM9)): No significant differences in tumor growth

B1: Sarilumab: fully human monoclonal antibody that selectively targets the interleukin-6 receptor (IL-6R) (antibody, chains of the INN, looked up, V domains shown)
VH: EVQLVESGGGLVQPGRSLRLSCAASRFTFDDYAMHWVRQAPGKGLEWVSGISWNSGRIGYADSVKGRFTISRDNAENSLFLQMNGLRAEDTALYYCAKGRDSFDIWGQGTMVTVSS
VL: DIQMTQSPSSVSASVGDRVTITCRASQGISSWLAWYQQKPGKAPKLLIYGASSLESGVPSRFSGSGSGTDFTLTISSLQPEDFASYYCQQANSFPYTFGQGTKLEIK
growth of KPMM2 [5]: suppress the growth | fluorescent intensity in COS-7 cells expressing human IL-6R (human IL-6R; IL-6R transfectant): increases the fluorescent intensity | fluorescent intensity in COS-7 mock cells (human IL-6R; control vector pcDNA3.1 (+) transfectant): not in COS-7 mock cells | ACR20 [6]: significant and clinically relevant improvements | proliferation of BAF-h130 cells induced by IL-6/sIL-6R complex (BAF-h130 cells): suppresses the proliferation of BAF-h130 cells induced by the complex of IL-6 and sIL-6R in a concentration-dependent manner
